# What was measured:
# [1] = Agonist activity at estrogen receptor in human MCF7 cells assessed as induction of cell proliferation after 5 days by WST-8 assay
# [2] = Antagonist activity at estrogen receptor in human MCF7 cells assessed as inhibition of estradiol-induced cell proliferation after 5 days by WST-8 assay
compound,measurement,setting,value
CN(C)CCOc1ccc(C23CC4CC(CC(c5ccc(O)cc5)(C4)C2)C3)cc1,EC50,[1],16 nM
same,IC50,[2],1060 nM
